In patent US20240309003A1, “HETEROCYCLIC COMPOUNDS AS TRIGGERING RECEPTOR EXPRESSED ON MYELOID CELLS 2 AGONISTS AND METHODS OF USE” (Vigil Neuroscience, Inc., priority 2021, published 2024):

biological target: T1, human TREM2 (Homo sapiens, UniProt Q9NZC2); assay: TREM2 agonist potency by cellular phosphorylation of Syk (AlphaLisa) in HEK293T-hTREM2 cells; assay type: cell-based; conditions: HEK293 cells expressing human TREM2 and DAP12, Table D
T1 construct: expressed in transfected cells; host or cells: HEK293T
T1 sequence (Q9NZC2 19-230): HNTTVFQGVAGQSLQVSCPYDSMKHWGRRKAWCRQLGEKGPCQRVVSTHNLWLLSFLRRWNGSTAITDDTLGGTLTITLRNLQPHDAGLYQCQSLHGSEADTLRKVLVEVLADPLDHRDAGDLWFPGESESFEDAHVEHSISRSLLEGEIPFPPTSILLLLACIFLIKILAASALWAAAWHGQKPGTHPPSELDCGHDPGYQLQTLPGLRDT
T1 sequence (O43914 22-113 partner): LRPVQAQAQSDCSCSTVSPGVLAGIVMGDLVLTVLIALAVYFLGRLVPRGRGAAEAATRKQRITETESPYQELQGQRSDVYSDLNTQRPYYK
Method in brief: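 Agonist EC50 from a variable-slope four-parameter fit of % activation, based on AlphaLisa phospho-Syk levels in lysates. Cells: HEK293T-hTREM2 (with DAP12), treated 45 min at room temperature with compound in assay buffer.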

EC50 [nM]	SMILES
50 to 500	Cc1ccc2c(-c3ccc(F)cc3F)nc([C@H]3CCO[C@@H](c4cnn(C5CC5)c4)C3)nc2n1 [Example 215, 2-((2R,4S)-2-(1-cyclopropyl-1H-pyrazol-4-yl)tetrahydro-2H-pyran-4-yl)-4-(2,4-difluorophenyl)-7-methylpyrido[2,3-d]pyrimidine]
< 50	Cc1nc2nc(N3CCOC(c4cc[nH]c(=O)c4)C3)nc(C34CC(C(F)(F)F)(C3)C4)c2nc1C (centres unmarked) [Example 197, 4-(4-(6,7-dimethyl-4-(3-(trifluoromethyl)bicyclo[1.1.1]pentan-1-yl)pteridin-2-yl)morpholin-2-yl)pyridin-2(1H)-one]
50 to 500	[2H]C1([2H])C[C@@H](c2nc(-c3ccc(Cl)cc3F)c3nc(C)c(C)nc3n2)C[C@@]([2H])(c2cnn(C3CC3)c2)O1 [Example 193, 4-(4-chloro-2-fluorophenyl)-2-((2S,4R)-2-(1-cyclopropyl-1H-pyrazol-4-yl)tetrahydro-2H-pyran-4-yl-2,6,6-d3)-6,7-dimethylpteridine]
50 to 500	[2H]C1([2H])C[C@H](c2nc(-c3ccc(F)cc3F)c3nc(C)c(C)nc3n2)C[C@H](c2cnn(C3CC3)c2)O1 [Example 171, 2-((2R,4S)-2-(1-cyclopropyl-1H-pyrazol-4-yl)tetrahydro-2H-pyran-4-yl-6,6-d2)-4-(2,4-difluorophenyl)-6,7-dimethylpteridine]
50 to 500	COc1ncccc1[C@H]1C[C@@H](c2nc(-c3ccc(F)cc3F)c3nc(C)c(C)nc3n2)CCO1 [Example 161, 4-(2,4-difluorophenyl)-2-((2R,4S)-2-(2-methoxypyridin-3-yl)tetrahydro-2H-pyran-4-yl)-6,7-dimethylpteridine]
500 to 3000	Cc1nc2nc([C@@H]3CCO[C@H](c4cnn(C5CC5)c4)C3)nc(-c3cc(F)c(F)cc3F)c2nc1C [Example 152, 2-((2S,4R)-2-(1-cyclopropyl-1H-pyrazol-4-yl)tetrahydro-2H-pyran-4-yl)-6,7-dimethyl-4-(2,4,5-trifluorophenyl)pteridine]
50 to 500	Cc1nc2nc(N3CCO[C@H](c4cc[nH]c(=O)c4)C3)nc(C34CC(C(F)(F)F)(C3)C4)c2nc1C [Example 199, (R)-4-(4-(6,7-dimethyl-4-(3-(trifluoromethyl)bicyclo[1.1.1]pentan-1-yl)pteridin-2-yl)morpholin-2-yl)pyridin-2(1H)-one]
< 50	Cc1cc2c(-c3ccc(F)cc3F)cc([C@H]3CCO[C@@H](c4cnn(C5CC5)c4)C3)nc2nc1C [Example 232]
500 to 3000	Cc1nc2cc([C@@H]3CCO[C@H](c4cnn(C5CC5)c4)C3)cc(-c3ccc(Cl)cc3F)c2nc1C [Example 227, 5-(4-chloro-2-fluorophenyl)-7-((2S,4R)-2-(1-cyclopropyl-1H-pyrazol-4-yl)tetrahydro-2H-pyran-4-yl)-2,3-dimethylquinoxaline]
< 50	Cc1nc2nc([C@H]3CCO[C@@H](c4cnn(C5CC5)c4)C3)nc(-c3cc(F)c(F)cc3F)c2nc1C [Example 153, 2-((2R,4S)-2-(1-cyclopropyl-1H-pyrazol-4-yl)tetrahydro-2H-pyran-4-yl)-6,7-dimethyl-4-(2,4,5-trifluorophenyl)pteridine]
< 50	Cc1nc2nc(-c3ccc(Cl)cc3F)cc([C@H]3CCO[C@@H](c4cnn(C5CC5)c4)C3)c2nc1C [Example 237, 6-(4-chloro-2-fluorophenyl)-8-((2R,4S)-2-(1-cyclopropyl-1H-pyrazol-4-yl)tetrahydro-2H-pyran-4-yl)-2,3-dimethylpyrido[2,3-b]pyrazine]
500 to 3000	Cc1cnc2c(C34CC(C)(C3)C4)nc([C@H]3C[C@@H](C)O[C@@H](c4cnn(C5CC5)c4)C3)nc2n1 [Example 151, 2-((2R,4S,6R)-2-(1-cyclopropyl-1H-pyrazol-4-yl)-6-methyltetrahydro-2H-pyran-4-yl)-7-methyl-4-(3-methylbicyclo[1.1.1]pentan-1-yl)pteridine]
< 50	Cc1cnc2c(C34CC(C(F)(F)F)(C3)C4)nc(N3C[C@@H](C)O[C@@H](c4cnn(C5CC5)c4)C3)nc2n1 [Example 126, (2S,6R)-2-(1-cyclopropyl-1H-pyrazol-4-yl)-6-methyl-4-(7-methyl-4-(3-(trifluoromethyl)bicyclo[1.1.1]pentan-1-yl)pteridin-2-yl)morpholine]
50 to 500	Cc1ccc(-c2nc(N3C[C@@H](C)O[C@@H](c4cnn(C5CC5)c4)C3)nc3nc(C)c(C)nc23)o1 [Example 243, (2S,6R)-2-(1-cyclopropyl-1H-pyrazol-4-yl)-4-(6,7-dimethyl-4-(5-methylfuran-2-yl)pteridin-2-yl)-6-methylmorpholine]
< 50	Cc1nc2nc([C@H]3CCO[C@@H](c4cnn(C5CCC5)c4)C3)nc(-c3ccc(F)cc3F)c2nc1C [Example 148, 2-((2R,4S)-2-(1-cyclobutyl-1H-pyrazol-4-yl)tetrahydro-2H-pyran-4-yl)-4-(2,4-difluorophenyl)-6,7-dimethylpteridine]

same assay, conditions: HEK293 cells expressing human TREM2 and DAP12, Table D-2

EC50 [nM]	SMILES
50 to 500	Cc1nc2nc(N3C[C@@H](C)O[C@@H](c4cnn(C5CC5)c4CO)C3)nc(-c3ccc(F)cc3F)c2nc1C [Example I-1462, [2-cyclopropyl-4-[(2S,6R)-4-[4-(2,4-difluorophenyl)-6,7-dimethyl-pteridin-2-yl]-6-methyl-morpholin-2-yl]pyrazol-3-yl]methanol]
< 50	Cc1nc2nc(C3CCO[C@@H](c4cnn(C5CC5)c4)C3)nc(-c3cc(C(F)(F)F)c(F)cc3F)c2nc1C (stereo partly drawn) [Example I-1585, 2-((2R)-2-(1-cyclopropyl-1H-pyrazol-4-yl)tetrahydro-2H-pyran-4-yl)-4-(2,4-difluoro-5-(trifluoromethyl)phenyl)-6,7-dimethylpteridinee]
50 to 500	Cc1nc2nc([C@H]3CCO[C@H](c4cnc(C5CC5)o4)C3)nc(-c3ccc(F)cc3F)c2nc1C [Example I-1698, 2-cyclopropyl-5-[(2S,4S)-4-[4-(2,4-difluorophenyl)-6,7-dimethyl-pteridin-2-yl]tetrahydropyran-2-yl]oxazole]
50 to 500	Cc1nc2nc(-c3cc(-c4cnn(C5CC5)c4)c(=O)n(C)c3)nc(-c3ccc(F)cc3F)c2nc1C [Example I-1461, 3-(1-cyclopropyl-1H-pyrazol-4-yl)-5-(4-(2,4-difluorophenyl)-6,7-dimethylpteridin-2-yl)-1-methylpyridin-2(1H)-one]
500 to 3000	CN(C)C(=O)c1nc2c(-c3ccc(F)cc3F)nc(C3CCO[C@@H](c4cnn(C5CC5)c4)C3)nc2nc1C1CC1 (stereo partly drawn) [Example I-1603, 7-cyclopropyl-2-[(2R)-2-(1-cyclopropylpyrazol-4-yl)tetrahydropyran-4-yl]-4-(2,4-difluorophenyl)-N,N-dimethyl-pteridine-6-carboxamide]
< 50	Cc1cc2c(C3CCC(C(F)F)CC3)nc(N3C[C@@H](C)O[C@@H](c4cnn(C5CC5)c4)C3)nc2nc1C (stereo partly drawn) [Example I-1328, (2S,6R)-2-(1-cyclopropylpyrazol-4-yl)-4-[4-[4-(difluoromethyl)cyclohexyl]-6,7-dimethyl-pyrido[2,3-d]pyrimidin-2-yl]-6-methyl-morpholine]
< 50	Cc1nc2nc([C@H]3CCO[C@@H](c4cnn(CC5CC5)c4)C3)nc(-c3ccc(C(F)(F)F)cc3F)c2nc1C [Example I-1577, 2-[(2R,4S)-2-[1-(cyclopropylmethyl)pyrazol-4-yl]tetrahydropyran-4-yl]-4-[2-fluoro-4-(trifluoromethyl)phenyl]-6,7-dimethyl-pteridine]
< 50	Cc1nc2nc(N3C[C@@H](C)O[C@@H](c4cnn(C5CC5)c4)C3)nc(-c3cc(F)c(C(F)(F)F)cc3F)c2nc1C [Example I-1538, (2S,6R)-2-(1-cyclopropylpyrazol-4-yl)-4-[4-[2,5-difluoro-4-(trifluoromethyl)phenyl]-6,7-dimethyl-pteridin-2-yl]-6-methyl-morpholine]
50 to 500	Cc1nc2c(-c3ccc(Cl)cc3F)nc([C@H]3CCO[C@@H](c4cnn(C5CC5)c4)C3)nc2nc1CC(F)F [Example I-1477, 4-(4-chloro-2-fluoro-phenyl)-2-[(2R,4S)-2-(1-cyclopropylpyrazol-4-yl)tetrahydropyran-4-yl]-7-(2,2-difluoroethyl)-6-methyl-pteridine]
< 50	Cc1nc2nc([C@H]3CCO[C@@H](c4cnn(C5CC5)c4)C3)nc(-c3ccc(F)cc3F)c2nc1C(F)F [Example I-1323, 2-[(2R,4S)-2-(1-cyclopropylpyrazol-4-yl)tetrahydropyran-4-yl]-6-(difluoromethyl)-4-(2,4-difluorophenyl)-7-methyl-pteridine]
50 to 500	Cc1cc([C@H]2CN(c3nc(-c4ccc(Cl)cc4F)c4nc(C)c(C)nc4n3)CCO2)no1 [Example I-1510, (2R)-4-[4-(4-chloro-2-fluoro-phenyl)-6,7-dimethyl-pteridin-2-yl]-2-(5-methylisoxazol-3-yl)morpholine]
3000 to 100000	Cc1nc2cc([C@H]3CCO[C@@H](c4cnn(C5CC5)c4)C3)nc(-c3ccc(F)cc3F)c2nc1COC(F)F [Example I-1490, 7-((2R,4S)-2-(1-cyclopropyl-1H-pyrazol-4-yl)tetrahydro-2H-pyran-4-yl)-3-((difluoromethoxy)methyl)-5-(2,4-difluorophenyl)-2-methylpyrido[3,4-b]pyrazine]
50 to 500	Fc1cc(Cl)ccc1-c1nc([C@@H]2CCO[C@H](c3cnn(C4CC4)c3)C2)nc2nc(CC(F)(F)F)cnc12 [Example I-1338, 4-(4-chloro-2-fluoro-phenyl)-2-[(2S,4R)-2-(1-cyclopropylpyrazol-4-yl)tetrahydropyran-4-yl]-7-(2,2,2-trifluoroethyl)pteridine]
< 50	Cc1nc2nc(N3C[C@@H](C)O[C@@H](c4cnn(C5CC5)c4)C3)nc([C@H]3C[C@H](OC(F)(F)F)C3)c2nc1C [Example I-1729, (2S,6R)-2-(1-cyclopropylpyrazol-4-yl)-4-[6,7-dimethyl-4-[3-(trifluoromethoxy)cyclobutyl]pteridin-2-yl]-6-methyl-morpholine]
